Results on two molecules are retold here after publication PMC10537604, “Development and Assessment of 1,5–Diarylpyrazole/Oxime Hybrids Targeting EGFR and JNK–2 as Antiproliferative Agents: A Comprehensive Study through Synthesis, Molecular Docking, and Evaluation” (Molecules, 2023).

This test concerns Hela cell line. The test can be described thus: Cell cycle analysis, PI staining, flow cytometry. Type of test: cell-based, human. The following applies: for cell cycle arrest phase: Hela, PI staining. The protocol: This analysis was applied to investigate the effects of tested compounds on cell cycle distribution and on cell-death associated DNA fragmentation. The Hela cell line was analyzed flow cytometrically after propidium iodide (PI) staining, following the treatment of compounds 8g and 8i.
The supernatant was transferred to falcon tube for each plate and each well was washed twice with 3 mL PBS, Trypsin 1 mL was added, and plates were incubated for 3 to 5 min at 37 degrees, then 3 mL of the medium was added to separate cells, cells were centrifuged for 5 min, and supernatant was decanted. Then, it was washed again with 3 mL PBS, and 10 mL of medium was added. Cells were immediately fixed in ice cold 70% ethanol overnight at −20 °C. On the day of the analysis, cells were washed ×3 with PBS and re-suspended in propidium iodide (PI) for 15 min at room temperature, protected from light. Cell-cycle analysis was performed using flowcytometric analysis (BD FACS melody) and data obtained from cell cycle distribution was analyzed using FSC-W (Watson model) to estimate the percentage of cells in G1, S, and G2.
Background: Flow cytometry measures light scatter and fluorescence of single cells or particles in a stream.

Structures are written as SMILES.

Regarding `COc1cc(/C(C)=N/O)ccc1OC(=O)c1cc(-c2ccc(C)cc2)n(-c2ccc(S(N)(=O)=O)cc2)n1` [Compound 8g, (E)–4–(1–(Hydroxyimino)ethyl)–2–methoxyphenyl 1–(4–sulfamoylphenyl)–5–p–tolyl–1H–pyrazole–3–carboxylate], the “cell cycle arrest phase” value is “G2/M arrest”. The “percentage of Hela cells at G2 phase” value (48 h) amounted to 20.5%.

Regarding `COc1cc(/C(C)=N/O)ccc1OC(=O)c1cc(-c2ccc(Cl)cc2)n(-c2ccc(S(N)(=O)=O)cc2)n1` [Compound 8i, (E)–4–(1–(Hydroxyimino)ethyl)–2–methoxyphenyl 5–(4–chlorophenyl)–1–(4–sulfamoyl phenyl)–1H–pyrazole–3–carboxylate], the “cell cycle arrest phase” value is “combined S phase and G2 phase arrest”. Besides, where the note is “IC50 concentration, 24 h”, the “percentage of Hela cells at G2 phase” value is on record as 18.2% and the “percentage of Hela cells at S phase” value was 59.4%.
